Tests used:
Assay in all cases: viability relative to DMSO control (fraction); higher = less drug effect (more viable cells)
Details in all cases: 48 h
Roscovitine = compound: CC[C@H](CO)Nc1nc(NCc2ccccc2)c2ncn(C(C)C)c2n1 [Roscovitine]
Outline: (§1)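 Using 384-well plates with compounds already plated at five concentrations, one well per concentration, 4 × 10^4 primary mononuclear tumour cells were added per well. Cells were Ficoll-isolated from blood or bone marrow or came from processed lymph node, fresh or cryopreserved. They were kept for 48 h at 37 °C and 5% CO2 in RPMI-1640 supplemented with penicillin/streptomycin, L-glutamine and human serum, and viability was read as CellTiter-Glo luminescence relative to the median of 16 inner DMSO wells.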

Midostaurin hydrate = compound: CO[C@@H]1[C@H](N(C)C(=O)c2ccccc2)C[C@H]2O[C@]1(C)n1c3ccccc3c3c4c(c5c6ccccc6n2c5c31)C(=O)NC4 [Midostaurin hydrate]
Outline: as §1

Etoposide = compound: COc1cc([C@@H]2c3cc4c(cc3[C@@H](O[C@@H]3O[C@@H]5CO[C@@H](C)O[C@H]5[C@H](O)[C@H]3O)[C@H]3COC(=O)[C@H]23)OCO4)cc(OC)c1O [Etoposide]
Outline: as §1

Entospletinib = compound: c1cn2cc(-c3ccc4cn[nH]c4c3)nc(Nc3ccc(N4CCOCC4)cc3)c2n1 [Entospletinib]
Outline: as §1

Bendamustine = compound: Cn1c(CCCC(=O)O)nc2cc(N(CCCl)CCCl)ccc21 [Bendamustine]
Outline: as §1

CPI-169 = compound: CCS(=O)(=O)N1CCC([C@@H](C)n2c(C)c(C(=O)NCc3c(OC)cc(C)[nH]c3=O)c3ccccc32)CC1 [CPI-169]
Outline: as §1

Palbociclib = compound: CC(=O)c1c(C)c2cnc(Nc3ccc(N4CCNCC4)cn3)nc2n(C2CCCC2)c1=O [Palbociclib]
Outline: as §1

SGC 0946 = compound: CC(C)N(CCCNC(=O)Nc1ccc(C(C)(C)C)cc1)C[C@H]1O[C@@H](n2cc(Br)c3c(N)ncnc32)[C@H](O)[C@@H]1O [SGC 0946]
Outline: as §1

Barasertib = compound: CCN(CCCOc1ccc2c(Nc3cc(CC(=O)Nc4cccc(F)c4)[nH]n3)ncnc2c1)CCOP(=O)(O)O [Barasertib]
Outline: as §1

Selinexor = compound: O=C(/C=C\n1cnc(-c2cc(C(F)(F)F)cc(C(F)(F)F)c2)n1)NNc1cnccn1 [Selinexor]
Outline: as §1

Everolimus = compound: CO[C@H]1C[C@@H]2CC[C@@H](C)[C@@](O)(O2)C(=O)C(=O)N2CCCC[C@H]2C(=O)O[C@H]([C@H](C)C[C@@H]2CC[C@@H](OCCO)[C@H](OC)C2)CC(=O)[C@H](C)/C=C(\C)[C@@H](O)[C@@H](OC)C(=O)[C@H](C)C[C@H](C)/C=C/C=C/C=C/1C [Everolimus]
Outline: as §1

EPZ-6438 = compound: CCN(c1cc(-c2ccc(CN3CCOCC3)cc2)cc(C(=O)NCc2c(C)cc(C)[nH]c2=O)c1C)C1CCOCC1 [EPZ-6438]
Outline: as §1

Tofacitinib = compound: C[C@@H]1CCN(C(=O)CC#N)C[C@@H]1N(C)c1ncnc2[nH]ccc12 [Tofacitinib]
Outline: as §1

primary ALL patient cells (S088)
viability (Roscovitine; 0.032 µM): 0.619
viability (Roscovitine; 0.16 µM): 0.669
viability (Roscovitine; 0.8 µM): 0.615
viability (Roscovitine; 4 µM): 0.607
viability (Roscovitine; 20 µM): 0.319
viability (Midostaurin hydrate; 0.024 µM): 0.899
viability (Midostaurin hydrate; 0.12 µM): 0.858
viability (Midostaurin hydrate; 0.6 µM): 0.717
viability (Midostaurin hydrate; 3 µM): 0.489
viability (Midostaurin hydrate; 15 µM): 0.265
viability (Etoposide; 0.032 µM): 0.996
viability (Etoposide; 0.16 µM): 0.93
viability (Etoposide; 0.8 µM): 0.856
viability (Etoposide; 4 µM): 0.607
viability (Etoposide; 20 µM): 0.216
viability (Entospletinib; 0.024 µM): 1.01
viability (Entospletinib; 0.12 µM): 1.06
viability (Entospletinib; 0.6 µM): 0.954
viability (Entospletinib; 3 µM): 0.986
viability (Entospletinib; 15 µM): 1.02
viability (Bendamustine; 0.032 µM): 1
viability (Bendamustine; 0.16 µM): 1.07
viability (Bendamustine; 0.8 µM): 1
viability (Bendamustine; 4 µM): 0.929
viability (Bendamustine; 20 µM): 0.679
viability (CPI-169; 0.024 µM): 0.666
viability (CPI-169; 0.12 µM): 0.704
viability (CPI-169; 0.6 µM): 0.707
viability (CPI-169; 3 µM): 0.632
viability (CPI-169; 15 µM): 0.548
viability (Palbociclib; 0.024 µM): 0.877
viability (Palbociclib; 0.12 µM): 0.767
viability (Palbociclib; 0.6 µM): 0.654
viability (Palbociclib; 3 µM): 0.481
viability (Palbociclib; 15 µM): 0.108
viability (SGC 0946; 0.024 µM): 0.722
viability (SGC 0946; 0.12 µM): 0.733
viability (SGC 0946; 0.6 µM): 0.667
viability (SGC 0946; 3 µM): 0.681
viability (SGC 0946; 15 µM): 0.289
viability (Barasertib; 0.0008 µM): 0.716
viability (Barasertib; 0.004 µM): 0.61
viability (Barasertib; 0.02 µM): 0.415
viability (Barasertib; 0.1 µM): 0.614
viability (Barasertib; 0.5 µM): 0.588
viability (Selinexor; 0.008 µM): 0.494
viability (Selinexor; 0.04 µM): 0.339
viability (Selinexor; 0.2 µM): 0.115
viability (Selinexor; 1 µM): 0.0421
viability (Selinexor; 5 µM): 0.0377
viability (Everolimus; 0.0032 µM): 0.871
viability (Everolimus; 0.016 µM): 0.782
viability (Everolimus; 0.08 µM): 0.76
viability (Everolimus; 0.4 µM): 0.739
viability (Everolimus; 2 µM): 0.74
viability (EPZ-6438; 0.024 µM): 1.03
viability (EPZ-6438; 0.12 µM): 1.03
viability (EPZ-6438; 0.6 µM): 1.02
viability (EPZ-6438; 3 µM): 0.928
viability (EPZ-6438; 15 µM): 0.742
viability (Tofacitinib; 0.024 µM): 0.703
viability (Tofacitinib; 0.12 µM): 0.707
viability (Tofacitinib; 0.6 µM): 0.702
viability (Tofacitinib; 3 µM): 0.78
viability (Tofacitinib; 15 µM): 0.662

primary ALL patient cells (S048)
viability (Roscovitine; 0.032 µM): 0.65
viability (Roscovitine; 0.16 µM): 0.614
viability (Roscovitine; 0.8 µM): 0.607
viability (Roscovitine; 4 µM): 0.579
viability (Roscovitine; 20 µM): 0.599
viability (Midostaurin hydrate; 0.024 µM): 0.98
viability (Midostaurin hydrate; 0.12 µM): 0.918
viability (Midostaurin hydrate; 0.6 µM): 0.889
viability (Midostaurin hydrate; 3 µM): 0.556
viability (Midostaurin hydrate; 15 µM): 0.182
viability (Etoposide; 0.032 µM): 0.961
viability (Etoposide; 0.16 µM): 0.915
viability (Etoposide; 0.8 µM): 0.771
viability (Etoposide; 4 µM): 0.299
viability (Etoposide; 20 µM): 0.0679
viability (Entospletinib; 0.024 µM): 0.996
viability (Entospletinib; 0.12 µM): 1.03
viability (Entospletinib; 0.6 µM): 1.02
viability (Entospletinib; 3 µM): 0.984
viability (Entospletinib; 15 µM): 0.944
viability (Bendamustine; 0.032 µM): 0.981
viability (Bendamustine; 0.16 µM): 1.03
viability (Bendamustine; 0.8 µM): 0.982
viability (Bendamustine; 4 µM): 0.747
viability (Bendamustine; 20 µM): 0.15
viability (CPI-169; 0.024 µM): 0.675
viability (CPI-169; 0.12 µM): 0.606
viability (CPI-169; 0.6 µM): 0.631
viability (CPI-169; 3 µM): 0.621
viability (CPI-169; 15 µM): 0.604
viability (Palbociclib; 0.024 µM): 0.87
viability (Palbociclib; 0.12 µM): 0.824
viability (Palbociclib; 0.6 µM): 0.708
viability (Palbociclib; 3 µM): 0.471
viability (Palbociclib; 15 µM): 0.247
viability (SGC 0946; 0.024 µM): 0.807
viability (SGC 0946; 0.12 µM): 0.829
viability (SGC 0946; 0.6 µM): 0.781
viability (SGC 0946; 3 µM): 0.695
viability (SGC 0946; 15 µM): 0.303
viability (Barasertib; 0.0008 µM): 0.776
viability (Barasertib; 0.004 µM): 0.774
viability (Barasertib; 0.02 µM): 0.744
viability (Barasertib; 0.1 µM): 0.775
viability (Barasertib; 0.5 µM): 0.753
viability (Selinexor; 0.008 µM): 0.335
viability (Selinexor; 0.04 µM): 0.341
viability (Selinexor; 0.2 µM): 0.366
viability (Selinexor; 1 µM): 0.378
viability (Selinexor; 5 µM): 0.285
viability (Everolimus; 0.0032 µM): 0.862
viability (Everolimus; 0.016 µM): 0.757
viability (Everolimus; 0.08 µM): 0.769
viability (Everolimus; 0.4 µM): 0.716
viability (Everolimus; 2 µM): 0.777
viability (EPZ-6438; 0.024 µM): 1.01
viability (EPZ-6438; 0.12 µM): 0.973
viability (EPZ-6438; 0.6 µM): 1.03
viability (EPZ-6438; 3 µM): 0.918
viability (EPZ-6438; 15 µM): 0.753
viability (Tofacitinib; 0.024 µM): 0.757
viability (Tofacitinib; 0.12 µM): 0.728
viability (Tofacitinib; 0.6 µM): 0.766
viability (Tofacitinib; 3 µM): 0.796
viability (Tofacitinib; 15 µM): 0.693

primary AML patient cells (S056)
viability (Roscovitine; 0.032 µM): 0.781
viability (Roscovitine; 0.16 µM): 0.741
viability (Roscovitine; 0.8 µM): 0.743
viability (Roscovitine; 4 µM): 0.627
viability (Roscovitine; 20 µM): 0.302
viability (Midostaurin hydrate; 0.024 µM): 0.6
viability (Midostaurin hydrate; 0.12 µM): 0.507
viability (Midostaurin hydrate; 0.6 µM): 1.43
viability (Midostaurin hydrate; 3 µM): 1.64
viability (Midostaurin hydrate; 15 µM): 1.28
viability (Etoposide; 0.032 µM): 0.875
viability (Etoposide; 0.16 µM): 0.948
viability (Etoposide; 0.8 µM): 0.714
viability (Etoposide; 4 µM): 0.598
viability (Etoposide; 20 µM): 0.392
viability (Entospletinib; 0.024 µM): 1.05
viability (Entospletinib; 0.12 µM): 0.788
viability (Entospletinib; 0.6 µM): 0.981
viability (Entospletinib; 3 µM): 0.99
viability (Entospletinib; 15 µM): 0.979
viability (Bendamustine; 0.032 µM): 1.02
viability (Bendamustine; 0.16 µM): 0.816
viability (Bendamustine; 0.8 µM): 1.06
viability (Bendamustine; 4 µM): 0.779
viability (Bendamustine; 20 µM): 0.878
viability (CPI-169; 0.024 µM): 0.887
viability (CPI-169; 0.12 µM): 0.869
viability (CPI-169; 0.6 µM): 0.733
viability (CPI-169; 3 µM): 0.787
viability (CPI-169; 15 µM): 1.05
viability (Palbociclib; 0.024 µM): 0.981
viability (Palbociclib; 0.12 µM): 0.945
viability (Palbociclib; 0.6 µM): 0.551
viability (Palbociclib; 3 µM): 0.511
viability (Palbociclib; 15 µM): 0.169
viability (SGC 0946; 0.024 µM): 0.869
viability (SGC 0946; 0.12 µM): 0.736
viability (SGC 0946; 0.6 µM): 0.996
viability (SGC 0946; 3 µM): 0.96
viability (SGC 0946; 15 µM): 0.825
viability (Barasertib; 0.0008 µM): 0.82
viability (Barasertib; 0.004 µM): 1.33
viability (Barasertib; 0.02 µM): 0.68
viability (Barasertib; 0.1 µM): 0.551
viability (Barasertib; 0.5 µM): 0.431
viability (Selinexor; 0.008 µM): 0.787
viability (Selinexor; 0.04 µM): 0.685
viability (Selinexor; 0.2 µM): 0.5
viability (Selinexor; 1 µM): 0.435
viability (Selinexor; 5 µM): 0.324
viability (Everolimus; 0.0032 µM): 0.965
viability (Everolimus; 0.016 µM): 0.92
viability (Everolimus; 0.08 µM): 0.901
viability (Everolimus; 0.4 µM): 0.62
viability (Everolimus; 2 µM): 0.812
viability (EPZ-6438; 0.024 µM): 1.17
viability (EPZ-6438; 0.12 µM): 1.17
viability (EPZ-6438; 0.6 µM): 0.909
viability (EPZ-6438; 3 µM): 1.09
viability (EPZ-6438; 15 µM): 0.809
viability (Tofacitinib; 0.024 µM): 0.85
viability (Tofacitinib; 0.12 µM): 0.802
viability (Tofacitinib; 0.6 µM): 0.689
viability (Tofacitinib; 3 µM): 0.657
viability (Tofacitinib; 15 µM): 0.448

— the supplement of paper PMC10733146
